Molecular target: T1, small-conductance Ca2+-activated K+ channels (SK channels, subtype 2) (Homo sapiens, UniProt Q9H2S1)
T1 construct: expressed in transfected cells; host or cells: HEK293
Assay: whole-cell patch-clamp of ionic current through SK2 channels in HEK293 cells (SC100)
Assay type: cell-based
Details: whole-cell patch-clamp, HEK293 cells expressing SK2 channels; concentration that increases the basal current by 100%
In short: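 SC100, the concentration doubling basal current (a 100% increase), was taken from SK2 currents recorded by whole-cell patch-clamp in SK2-expressing HEK293 cells.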

Row | SMILES | SC100 (μM)
1 | COc1cnc(-c2nc(C)cs2)nc1NC1CCC(F)(F)CC1 [IN11125-014-P1, N-(4,4-difluorocyclohexyl)-5-methoxy-2-(4-methylthiazol-2-yl)pyrimidin-4-amine] | ++ (++ means 200 nM-1000 nM)
2 | COc1cc(NC2CCC(F)(F)C2)nc(-c2nc(C)cs2)n1 (stereo not drawn) [IN11125-028-P1] | + (+ means >1 uM)
3 | COC(=O)NCCOc1c(NC2CCC(F)(F)CC2)nc(-c2nc(C)cs2)nc1OC [IN11125-052-P1, methyl (2-((4-((4,4-difluorocyclohexyl)amino)-6-methoxy-2-(4-methylthiazol-2-yl)pyrimidin-5-yl)oxy)ethyl)carbamate] | + (+ means >1 uM)
4 | COC(=O)NCCOc1c(NC2CCC(F)(F)CC2)nc(-c2nc(C)cs2)[nH]c1=O [IN11125-065-P1, methyl (2-((4-((4,4-difluorocyclohexyl)amino)-6-hydroxy-2-(4-methylthiazol-2-yl)pyrimidin-5-yl)oxy)ethyl)carbamate] | + (+ means >1 uM)
5 | COc1nc(-c2nc(C)cs2)nc(NC2CCC(F)(F)CC2)c1OCc1cnco1 [IN11125-091-P1, N-(4,4-difluorocyclohexyl)-6-methoxy-2-(4-methylthiazol-2-yl)-5-(oxazol-5-ylmethoxy)pyrimidin-4-amine] | + (+ means >1 uM)
6 | Cc1csc(-c2ncc(O)c(NC3CCC(F)(F)CC3)n2)n1 [IN11125-095-P1, 4-((4,4-difluorocyclohexyl)amino)-2-(4-methylthiazol-2-yl)pyrimidin-5-ol] | + (+ means >1 uM)
7 | Cc1ccn(-c2cc3c(c(N4CCOCC4)n2)CCN3)n1 [IN11130-005-P1, 4-(6-(3-methyl-1H-pyrazol-1-yl)-2,3-dihydro-1H-pyrrolo[3,2-c]pyridin-4-yl)morpholine] | + (+ means >1 uM)
8 | Cc1cccc(-c2nccc(NC3CCC(F)(F)CC3)n2)n1 [IN11130-030-P1, N-(4,4-difluorocyclohexyl)-2-(6-methylpyridin-2-yl)pyrimidin-4-amine] | + (+ means >1 uM)
9 | Cc1cccc(-c2nc(NC3CCC(F)(F)CC3)cc(OCc3cnco3)n2)n1 [IN11130-031-P2, N-(4,4-difluorocyclohexyl)-2-(6-methylpyridin-2-yl)-6-(oxazol-5-ylmethoxy)pyrimidin-4-amine] | + (+ means >1 uM)
10 | COC(=O)NCc1cc(NC2CCC(F)(F)CC2)nc(-c2nc(C)cs2)c1 [IN11130-047-P1] | +++ (+++ means <200 nM)
11 | Cc1csc(-c2cc(C(C)O)cc(NC3CCC(F)(F)CC3)n2)n1 (stereo not drawn) [IN11130-051-P1, 1-(2-((4,4-difluorocyclohexyl)amino)-6-(4-methylthiazol-2-yl)pyridin-4-yl) ethan-1-ol] | +++ (+++ means <200 nM)
12 | CC(=O)c1cc(NC2CCC(F)(F)CC2)nc(-c2nc(C)cs2)c1 [IN11130-053-P1, 1-(2-((4,4-difluorocyclohexyl)amino)-6-(4-methylthiazol-2-yl)pyridin-4-yl) ethan-1-one] | +++ (+++ means <200 nM)
13 | Cc1csc(-c2ncc(C)c(NC3CCC(F)(F)CC3)n2)n1 [IN11130-076-P1, N-(4,4-difluorocyclohexyl)-5-methyl-2-(4-methylthiazol-2-yl)pyrimidin-4-amine] | + (+ means >1 uM)
14 | COC(=O)N1CC=C(c2cc(NC3CCC(F)(F)CC3)nc(-n3ccc(C)n3)c2)CC1 [IN11130-077-P1, methyl 2′-((4,4-difluorocyclohexyl)amino)-6′-(3-methyl-1H-pyrazol-1-yl)-3,6-dihydro-[4,4′-bipyridine]-1(2H)-carboxylate] | + (+ means >1 uM)
15 | Cc1csc(-c2nc(NC3CCC(F)(F)CC3)cc(C(C)n3cccn3)n2)n1 (stereo not drawn) [IN11133-002-P1, 6-(1-(1H-pyrazol-1-yl)ethyl)-N-(4,4-difluorocyclohexyl)-2-(4-methylthiazol-2-yl)pyrimidin-4-amine] | + (+ means >1 uM)
